# Measured values published in patent US11053204B2, “Pyrimidinyloxy benzene derivatives as herbicides” (FMC Corporation, priority 2015, dated 2021).
# How the values were obtained:
# Format in all cases: in vivo
# [1] = test system: barnyardgrass (Echinochloa crus-galli); experiment: Test B flooded paddy test, plant response rating; details: 250 g ai/ha; Flood; scale of 0 to 100 where 0 is no effect and 100 is complete control; 13 to 15 days
# Outline: (§1)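 In-water treatment: compound dosed into 3 cm flood over soil, water level unchanged throughout. Controls run alongside; visual assessment at day 13–15.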
# rice (Oryza sativa) = experiment: Test B flooded paddy test, plant response rating; details: 250 g ai/ha; Flood; scale of 0 to 100 where 0 is no effect and 100 is complete control; 13 to 15 days
# Outline: as §1
# [2] = test system: sedge, umbrella (small-flower umbrella sedge, Cyperus difformis); experiment: Test B flooded paddy test, plant response rating; details: 250 g ai/ha; Flood; scale of 0 to 100 where 0 is no effect and 100 is complete control; 13 to 15 days
# Outline: as §1
# [3] = test system: blackgrass (Alopecurus myosuroides); experiment: Test C preemergence, plant response rating; details: Preemergence
# Outline: (§2)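 Both timings shared one formulation, a non-phytotoxic solvent mixture with surfactant, and a greenhouse period of 13 to 15 d. Preemergence used seeded loam/sand or silt loam soil, postemergence used 2 to 18 cm plants; visual ratings ran from 0 (no effect) to 100 (complete control).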
# corn (Zea mays) = experiment: Test C preemergence, plant response rating; details: Preemergence
# Outline: as §2
# [4] = test system: crabgrass, large (large crabgrass, Digitaria sanguinalis); experiment: Test C preemergence, plant response rating; details: Preemergence
# Outline: as §2
# [5] = test system: foxtail, giant (giant foxtail, Setaria faberii); experiment: Test C preemergence, plant response rating; details: Preemergence
# Outline: as §2
# [6] = test system: lambsquarters (Chenopodium album); experiment: Test C preemergence, plant response rating; details: Preemergence
# Outline: as §2
# [7] = test system: morningglory (Ipomoea coccinea); experiment: Test C preemergence, plant response rating; details: Preemergence
# Outline: as §2
# [8] = test system: nutsedge, yellow (yellow nutsedge, Cyperus esculentus); experiment: Test C preemergence, plant response rating; details: Preemergence
# Outline: as §2
# [9] = test system: oilseed rape (Brassica napus); experiment: Test C preemergence, plant response rating; details: Preemergence
# Outline: as §2
# [10] = test system: ragweed (common ragweed, Ambrosia elatior); experiment: Test C preemergence, plant response rating; details: Preemergence
# Outline: as §2
# [11] = test system: ryegrass, Italian (Italian ryegrass, Lolium multiflorum); experiment: Test C preemergence, plant response rating; details: Preemergence
# Outline: as §2
# soybean (Glycine max) = experiment: Test C preemergence, plant response rating; details: Preemergence
# Outline: as §2
# [12] = test system: velvetleaf (Abutilon theophrasti); experiment: Test C preemergence, plant response rating; details: Preemergence
# Outline: as §2
# [13] = test system: waterhemp (common waterhemp, Amaranthus rudis); experiment: Test C preemergence, plant response rating; details: Preemergence
# Outline: as §2
# [14] = test system: wheat (winter wheat, Triticum aestivum); experiment: Test C preemergence, plant response rating; details: Preemergence
# Outline: as §2
# [15] = test system: surinam grass (Brachiaria decumbens); experiment: Test C preemergence, plant response rating
# [16] = test system: wild poinsettia (Euphorbia heterophylla); experiment: Test C preemergence, plant response rating
# [17] = test system: oat, wild (wild oat Avena fatua); experiment: Test C preemergence, plant response rating
smiles,measurement,setting,value
CCCCC(=O)c1c(Br)cccc1Oc1ncc(Cl)cn1 [Compound 79],"Plant response rating, Barnyardgrass",[1],60
same,"Plant response rating, Rice",rice (Oryza sativa),45
same,"Plant response rating, Sedge, Umbrella",[2],100
same,"Plant response rating, Blackgrass","[3]; 62 g ai/ha, scale of 0 to 100",75
same,"Plant response rating, Blackgrass","[3]; 125 g ai/ha, scale of 0 to 100",90
same,"Plant response rating, Blackgrass","[3]; 16 g ai/ha, scale 0 to 100",5
same,"Plant response rating, Blackgrass","[3]; 31 g ai/ha, scale 0 to 100",10
same,"Plant response rating, Corn","corn (Zea mays); 62 g ai/ha, scale of 0 to 100",5
same,"Plant response rating, Corn","corn (Zea mays); 125 g ai/ha, scale of 0 to 100",30
same,"Plant response rating, Corn","corn (Zea mays); 16 g ai/ha, scale 0 to 100",0
same,"Plant response rating, Corn","corn (Zea mays); 31 g ai/ha, scale 0 to 100",0
same,"Plant response rating, Crabgrass, Large","[4]; 62 g ai/ha, scale of 0 to 100",100
same,"Plant response rating, Crabgrass, Large","[4]; 125 g ai/ha, scale of 0 to 100",98
same,"Plant response rating, Crabgrass, Large","[4]; 16 g ai/ha, scale 0 to 100",65
same,"Plant response rating, Crabgrass, Large","[4]; 31 g ai/ha, scale 0 to 100",98
same,"Plant response rating, Foxtail, Giant","[5]; 62 g ai/ha, scale of 0 to 100",80
same,"Plant response rating, Foxtail, Giant","[5]; 125 g ai/ha, scale of 0 to 100",98
same,"Plant response rating, Foxtail, Giant","[5]; 16 g ai/ha, scale 0 to 100",40
same,"Plant response rating, Foxtail, Giant","[5]; 31 g ai/ha, scale 0 to 100",70
same,"Plant response rating, Lambsquarters","[6]; 125 g ai/ha, scale of 0 to 100",85
same,"Plant response rating, Lambsquarters","[6]; 16 g ai/ha, scale 0 to 100",0
same,"Plant response rating, Lambsquarters","[6]; 31 g ai/ha, scale 0 to 100",10
same,"Plant response rating, Lambsquarters","[6]; 62 g ai/ha, scale 0 to 100",70
same,"Plant response rating, Morningglory","[7]; 125 g ai/ha, scale of 0 to 100",60
same,"Plant response rating, Morningglory","[7]; 16 g ai/ha, scale 0 to 100",20
same,"Plant response rating, Morningglory","[7]; 31 g ai/ha, scale 0 to 100",10
same,"Plant response rating, Morningglory","[7]; 62 g ai/ha, scale 0 to 100",10
same,"Plant response rating, Nutsedge, Yellow","[8]; 125 g ai/ha, scale of 0 to 100",0
same,"Plant response rating, Nutsedge, Yellow","[8]; 16 g ai/ha, scale 0 to 100",0
same,"Plant response rating, Nutsedge, Yellow","[8]; 31 g ai/ha, scale 0 to 100",0
same,"Plant response rating, Nutsedge, Yellow","[8]; 62 g ai/ha, scale 0 to 100",0
same,"Plant response rating, Oilseed Rape","[9]; 125 g ai/ha, scale of 0 to 100",95
same,"Plant response rating, Oilseed Rape","[9]; 16 g ai/ha, scale 0 to 100",0
same,"Plant response rating, Oilseed Rape","[9]; 31 g ai/ha, scale 0 to 100",0
same,"Plant response rating, Oilseed Rape","[9]; 62 g ai/ha, scale 0 to 100",70
same,"Plant response rating, Ragweed","[10]; 125 g ai/ha, scale of 0 to 100",30
same,"Plant response rating, Ragweed","[10]; 16 g ai/ha, scale 0 to 100",0
same,"Plant response rating, Ragweed","[10]; 31 g ai/ha, scale 0 to 100",0
same,"Plant response rating, Ragweed","[10]; 62 g ai/ha, scale 0 to 100",20
same,"Plant response rating, Ryegrass, Italian","[11]; 125 g ai/ha, scale of 0 to 100",35
same,"Plant response rating, Ryegrass, Italian","[11]; 16 g ai/ha, scale 0 to 100",0
same,"Plant response rating, Ryegrass, Italian","[11]; 31 g ai/ha, scale 0 to 100",10
same,"Plant response rating, Ryegrass, Italian","[11]; 62 g ai/ha, scale 0 to 100",30
same,"Plant response rating, Soybean","soybean (Glycine max); 125 g ai/ha, scale of 0 to 100",5
same,"Plant response rating, Soybean","soybean (Glycine max); 16 g ai/ha, scale 0 to 100",0
same,"Plant response rating, Soybean","soybean (Glycine max); 31 g ai/ha, scale 0 to 100",0
same,"Plant response rating, Soybean","soybean (Glycine max); 62 g ai/ha, scale 0 to 100",5
same,"Plant response rating, Velvetleaf","[12]; 125 g ai/ha, scale of 0 to 100",75
same,"Plant response rating, Velvetleaf","[12]; 16 g ai/ha, scale 0 to 100",10
same,"Plant response rating, Velvetleaf","[12]; 31 g ai/ha, scale 0 to 100",5
same,"Plant response rating, Velvetleaf","[12]; 62 g ai/ha, scale 0 to 100",20
same,"Plant response rating, Waterhemp","[13]; 125 g ai/ha, scale of 0 to 100",100
same,"Plant response rating, Waterhemp","[13]; 16 g ai/ha, scale 0 to 100",100
same,"Plant response rating, Waterhemp","[13]; 31 g ai/ha, scale 0 to 100",98
same,"Plant response rating, Waterhemp","[13]; 62 g ai/ha, scale 0 to 100",95
same,"Plant response rating, Wheat","[14]; 125 g ai/ha, scale of 0 to 100",15
same,"Plant response rating, Wheat","[14]; 16 g ai/ha, scale 0 to 100",0
same,"Plant response rating, Wheat","[14]; 31 g ai/ha, scale 0 to 100",5
same,"Plant response rating, Wheat","[14]; 62 g ai/ha, scale 0 to 100",5
same,"Plant response rating, Surinam Grass","[15]; 16 g ai/ha, scale 0 to 100",5
same,"Plant response rating, Surinam Grass","[15]; 31 g ai/ha, scale 0 to 100",30
same,"Plant response rating, Surinam Grass","[15]; 62 g ai/ha, scale 0 to 100",50
same,"Plant response rating, Surinam Grass","[15]; 125 g ai/ha, scale of 0 to 100",85
same,"Plant response rating, Poinsettia, Wild","[16]; 16 g ai/ha, scale 0 to 100",0
same,"Plant response rating, Poinsettia, Wild","[16]; 31 g ai/ha, scale 0 to 100",0
same,"Plant response rating, Poinsettia, Wild","[16]; 62 g ai/ha, scale 0 to 100",10
same,"Plant response rating, Poinsettia, Wild","[16]; 125 g ai/ha, scale of 0 to 100",40
same,"Plant response rating, Oat, Wild","[17]; 16 g ai/ha, scale 0 to 100",0
same,"Plant response rating, Oat, Wild","[17]; 31 g ai/ha, scale 0 to 100",0
same,"Plant response rating, Oat, Wild","[17]; 62 g ai/ha, scale 0 to 100",5
same,"Plant response rating, Oat, Wild","[17]; 125 g ai/ha, scale of 0 to 100",40
